Molecules are shown by their SMILES.

Chain of Melanocortin receptor 5 (P33032 whole entry): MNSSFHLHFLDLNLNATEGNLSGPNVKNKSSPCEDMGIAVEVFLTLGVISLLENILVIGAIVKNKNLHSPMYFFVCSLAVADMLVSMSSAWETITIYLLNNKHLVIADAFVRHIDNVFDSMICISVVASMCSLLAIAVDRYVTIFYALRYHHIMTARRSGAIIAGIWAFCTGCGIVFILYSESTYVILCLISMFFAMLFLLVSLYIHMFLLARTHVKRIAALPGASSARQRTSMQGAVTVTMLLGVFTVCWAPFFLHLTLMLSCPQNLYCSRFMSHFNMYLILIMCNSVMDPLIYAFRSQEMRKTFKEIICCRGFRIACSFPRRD

Test system in the first test: not listed separately
The test can be described thus: DRUGMATRIX: beta-Lactamase enzyme inhibition (substrate: Nitrocefin). More on the design: species or system Bacillus cereus. To be noted: Not Active = under 50% inhibition at 10 µM.
For the molecule `CCCCOC(=O)c1ccc(N)cc1` [BUTAMBEN], the IC50 – broadly, the concentration that gives 50% inhibition – is listed as “Not Active”; the Ki (in general, the dissociation constant of the complex between target and ligand, obtained from inhibition or displacement) was “Not Active”.

Turning to `Cc1ccccc1N1CCN(CCc2nnc3n2CCCC3)CC1` [DAPIPRAZOLE], the IC50 entry is reported as “Not Active” and the Ki result is “Not Active”.

Another test concerns the target T1, D(4) dopamine receptor (Homo sapiens, UniProt P21917).
T1 sequence (P21917 whole entry): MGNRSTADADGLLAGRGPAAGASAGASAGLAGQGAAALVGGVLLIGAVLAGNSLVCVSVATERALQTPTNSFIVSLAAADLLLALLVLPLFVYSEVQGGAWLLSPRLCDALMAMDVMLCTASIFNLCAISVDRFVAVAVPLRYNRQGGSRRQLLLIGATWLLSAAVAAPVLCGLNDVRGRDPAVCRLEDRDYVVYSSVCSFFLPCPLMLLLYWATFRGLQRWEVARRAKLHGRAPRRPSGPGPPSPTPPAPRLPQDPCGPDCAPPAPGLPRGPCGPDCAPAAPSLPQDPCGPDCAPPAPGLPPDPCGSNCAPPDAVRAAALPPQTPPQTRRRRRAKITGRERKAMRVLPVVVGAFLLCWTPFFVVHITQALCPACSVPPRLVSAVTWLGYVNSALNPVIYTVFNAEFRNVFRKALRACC
The test can be described thus: DRUGMATRIX: Dopamine D4.2 radioligand binding (ligand: [3H] Spiperone). Type of test: cell membranes, CHO-K1, Membrane. The conditions noted are these: cho-k1; Not Active = under 50% inhibition at 10 µM.
As to `CCCCOC(=O)c1ccc(N)cc1` [BUTAMBEN], the IC50 entry was “Not Active”.

Regarding `Cc1ccccc1N1CCN(CCc2nnc3n2CCCC3)CC1` [DAPIPRAZOLE], the IC50 result is “Not Active”.

For another test, the target named is Melanocortin receptor 4 (Homo sapiens, UniProt P32245). Note: in other assays of this panel Not Active means under 50% inhibition at 10 µM.
Chain of Melanocortin receptor 4 (P32245 whole entry): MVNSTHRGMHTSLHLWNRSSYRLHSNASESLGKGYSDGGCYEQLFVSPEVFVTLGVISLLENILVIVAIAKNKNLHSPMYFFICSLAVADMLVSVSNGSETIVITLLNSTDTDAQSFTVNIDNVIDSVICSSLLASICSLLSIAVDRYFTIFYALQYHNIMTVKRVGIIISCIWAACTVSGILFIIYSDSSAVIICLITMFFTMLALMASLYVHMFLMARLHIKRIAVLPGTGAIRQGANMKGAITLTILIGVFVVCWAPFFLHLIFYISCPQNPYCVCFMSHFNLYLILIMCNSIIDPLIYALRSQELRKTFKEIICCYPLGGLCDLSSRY
Experiment: not given
Type of test: cell membranes, Membrane. To be noted: hek293.
As to `CCCCOC(=O)c1ccc(N)cc1` [BUTAMBEN], the IC50 result is “Not Active”.

For `Cc1ccccc1N1CCN(CCc2nnc3n2CCCC3)CC1` [DAPIPRAZOLE], the half-inhibitory concentration (IC50) result is listed as “Not Active”.

For another test, the target named is 5-hydroxytryptamine receptor 1B (Rattus norvegicus, UniProt P28564). Note: in other assays of this panel Not Active means under 50% inhibition at 10 µM.
Chain of 5-hydroxytryptamine receptor 1B (P28564 whole entry): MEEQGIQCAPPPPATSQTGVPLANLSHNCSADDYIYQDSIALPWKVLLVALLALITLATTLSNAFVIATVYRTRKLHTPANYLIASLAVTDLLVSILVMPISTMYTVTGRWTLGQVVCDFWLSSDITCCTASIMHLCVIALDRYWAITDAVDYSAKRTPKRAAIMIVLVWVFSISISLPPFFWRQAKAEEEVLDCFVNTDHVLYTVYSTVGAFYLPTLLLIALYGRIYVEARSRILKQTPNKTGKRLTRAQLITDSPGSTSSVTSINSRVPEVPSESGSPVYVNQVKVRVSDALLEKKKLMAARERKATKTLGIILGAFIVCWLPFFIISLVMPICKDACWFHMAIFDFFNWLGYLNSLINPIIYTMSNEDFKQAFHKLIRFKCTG
Experiment: not given
It counts as cell membranes, Wistar, Cerebral cortex, Membrane.
Conditions: not given
As for `CCCCOC(=O)c1ccc(N)cc1` [BUTAMBEN], the IC50 entry is on record as “Not Active”.

As to `Cc1ccccc1N1CCN(CCc2nnc3n2CCCC3)CC1` [DAPIPRAZOLE], the IC50 result is “Not Active”.

In a further test the target is Mu-type opioid receptor (Homo sapiens, UniProt P35372). Nature of the test: DRUGMATRIX: Opiate mu (OP3, MOP) radioligand binding (ligand: [3H] Diprenorphine). Type of test: cell membranes, CHO-K1, Membrane. The conditions noted are these: cho-k1; Not Active = under 50% inhibition at 10 µM.
Chain of Mu-type opioid receptor (P35372 whole entry): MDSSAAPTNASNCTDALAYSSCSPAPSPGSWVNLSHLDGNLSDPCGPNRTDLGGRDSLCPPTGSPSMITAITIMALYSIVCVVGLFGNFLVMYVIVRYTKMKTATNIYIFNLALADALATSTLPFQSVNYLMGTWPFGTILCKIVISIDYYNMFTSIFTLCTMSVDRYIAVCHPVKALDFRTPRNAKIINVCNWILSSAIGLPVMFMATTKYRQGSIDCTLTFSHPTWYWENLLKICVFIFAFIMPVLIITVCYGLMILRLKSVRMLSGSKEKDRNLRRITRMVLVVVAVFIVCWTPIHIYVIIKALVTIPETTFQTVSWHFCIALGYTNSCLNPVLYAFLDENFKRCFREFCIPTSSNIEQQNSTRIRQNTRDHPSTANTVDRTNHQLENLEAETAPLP
As to `CCCCOC(=O)c1ccc(N)cc1` [BUTAMBEN], the 50% inhibitory concentration (IC50) result is recorded as “Not Active”.

For the molecule `Cc1ccccc1N1CCN(CCc2nnc3n2CCCC3)CC1` [DAPIPRAZOLE], the IC50 entry is given as “Not Active”.

Another test deals with T2, Caspase-1 (Homo sapiens, UniProt P29466).
T2 sequence (P29466 whole entry): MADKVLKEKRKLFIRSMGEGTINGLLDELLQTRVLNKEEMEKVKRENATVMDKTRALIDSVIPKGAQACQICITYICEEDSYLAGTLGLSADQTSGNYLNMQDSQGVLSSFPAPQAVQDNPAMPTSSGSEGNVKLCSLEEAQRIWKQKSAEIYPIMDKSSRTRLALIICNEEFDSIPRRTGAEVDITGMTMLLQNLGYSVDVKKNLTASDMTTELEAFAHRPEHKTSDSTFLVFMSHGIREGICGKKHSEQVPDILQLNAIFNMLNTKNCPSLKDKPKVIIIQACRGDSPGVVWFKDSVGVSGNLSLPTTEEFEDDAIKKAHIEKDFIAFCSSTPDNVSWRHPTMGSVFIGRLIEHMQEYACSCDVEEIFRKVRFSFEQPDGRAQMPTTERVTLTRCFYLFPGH
Experiment: not given
Conditions: not given
The arrangement: species or system Escherichia coli.
On to `CCCCOC(=O)c1ccc(N)cc1` [BUTAMBEN], for which the IC50 entry is listed as “Not Active”.

`Cc1ccccc1N1CCN(CCc2nnc3n2CCCC3)CC1` [DAPIPRAZOLE]: the IC50 entry is given as “Not Active”.

Test system in another test: not listed separately
Nature of the test: DRUGMATRIX: Purinergic P2X radioligand binding (ligand: [3H] alpha, beta-Methylene-ATP). Type of test: cell membranes, Oryctolagus cuniculus, New Zealand albino, Urinary bladder, Membrane. To be noted: Not Active = under 50% inhibition at 10 µM.
As for `CCCCOC(=O)c1ccc(N)cc1` [BUTAMBEN], the IC50 result is “Not Active” and the Ki result is reported as “Not Active”.

Regarding `Cc1ccccc1N1CCN(CCc2nnc3n2CCCC3)CC1` [DAPIPRAZOLE], the IC50 result was “Not Active” and the Ki entry is reported as “Not Active”.

A further test deals with Beta-1 adrenergic receptor (Homo sapiens, UniProt P08588). Nature of the test: DRUGMATRIX: Adrenergic beta1 radioligand binding (ligand: [125I] Cyanopindolol). Type of test: cell membranes, CHO-K1, Membrane. To be noted: cho-k1; Not Active = under 50% inhibition at 10 µM.
Chain of Beta-1 adrenergic receptor (P08588 whole entry): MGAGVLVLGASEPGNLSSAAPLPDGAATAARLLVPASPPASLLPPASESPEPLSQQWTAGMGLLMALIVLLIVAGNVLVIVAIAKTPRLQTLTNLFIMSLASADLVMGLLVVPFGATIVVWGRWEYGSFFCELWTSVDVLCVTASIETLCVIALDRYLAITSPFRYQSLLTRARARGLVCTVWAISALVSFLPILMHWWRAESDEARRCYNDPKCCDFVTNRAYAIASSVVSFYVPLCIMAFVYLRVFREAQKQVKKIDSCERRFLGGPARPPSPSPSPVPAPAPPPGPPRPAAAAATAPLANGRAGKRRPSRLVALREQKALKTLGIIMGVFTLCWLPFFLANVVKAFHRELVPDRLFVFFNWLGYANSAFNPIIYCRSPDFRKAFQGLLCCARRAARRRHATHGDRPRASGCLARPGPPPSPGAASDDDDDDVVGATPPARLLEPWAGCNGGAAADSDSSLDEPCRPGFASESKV
In the case of `CCCCOC(=O)c1ccc(N)cc1` [BUTAMBEN], the IC50 entry is reported as “Not Active”.

Turning to `Cc1ccccc1N1CCN(CCc2nnc3n2CCCC3)CC1` [DAPIPRAZOLE], the IC50 entry is reported as “Not Active”.

Another test deals with Epidermal growth factor receptor (Homo sapiens, UniProt P00533). The test can be described thus: DRUGMATRIX: Protein Tyrosine Kinase, EGF Receptor enzyme inhibition (substrate: Poly(Glu:Tyr)). Type of test: cell-based, Insect cells. The conditions noted are these: insect cells; Not Active = under 50% inhibition at 10 µM.
Chain of Epidermal growth factor receptor (P00533 whole entry): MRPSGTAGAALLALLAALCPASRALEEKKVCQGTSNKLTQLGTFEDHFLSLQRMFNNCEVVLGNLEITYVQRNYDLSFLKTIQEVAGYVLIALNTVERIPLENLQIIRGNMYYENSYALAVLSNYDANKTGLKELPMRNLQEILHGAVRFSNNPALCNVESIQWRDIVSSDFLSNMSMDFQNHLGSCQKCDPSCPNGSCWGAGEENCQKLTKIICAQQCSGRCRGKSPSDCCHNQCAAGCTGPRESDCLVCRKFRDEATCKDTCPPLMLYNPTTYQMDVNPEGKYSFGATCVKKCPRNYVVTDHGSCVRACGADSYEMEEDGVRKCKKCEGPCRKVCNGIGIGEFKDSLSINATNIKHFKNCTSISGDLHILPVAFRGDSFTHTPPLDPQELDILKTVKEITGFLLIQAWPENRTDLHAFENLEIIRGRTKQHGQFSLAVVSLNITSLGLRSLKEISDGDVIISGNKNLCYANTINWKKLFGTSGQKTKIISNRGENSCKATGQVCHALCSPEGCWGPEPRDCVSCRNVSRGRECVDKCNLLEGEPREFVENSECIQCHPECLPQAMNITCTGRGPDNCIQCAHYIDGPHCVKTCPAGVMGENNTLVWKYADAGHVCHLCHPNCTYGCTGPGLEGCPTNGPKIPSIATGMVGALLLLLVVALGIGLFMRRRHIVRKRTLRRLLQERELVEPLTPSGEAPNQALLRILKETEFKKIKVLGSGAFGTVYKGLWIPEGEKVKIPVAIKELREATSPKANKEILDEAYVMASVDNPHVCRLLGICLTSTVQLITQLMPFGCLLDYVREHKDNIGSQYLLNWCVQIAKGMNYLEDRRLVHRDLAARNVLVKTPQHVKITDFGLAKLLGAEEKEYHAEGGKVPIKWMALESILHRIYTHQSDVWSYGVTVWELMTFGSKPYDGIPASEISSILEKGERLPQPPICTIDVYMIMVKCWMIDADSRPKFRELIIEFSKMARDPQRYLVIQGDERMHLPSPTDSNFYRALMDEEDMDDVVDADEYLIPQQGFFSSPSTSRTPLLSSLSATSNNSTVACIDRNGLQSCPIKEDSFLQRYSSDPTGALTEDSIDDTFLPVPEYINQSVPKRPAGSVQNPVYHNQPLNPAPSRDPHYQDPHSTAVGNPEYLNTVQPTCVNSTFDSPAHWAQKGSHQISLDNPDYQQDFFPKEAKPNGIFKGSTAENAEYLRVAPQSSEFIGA
For `CCCCOC(=O)c1ccc(N)cc1` [BUTAMBEN], the IC50 entry is on record as “Not Active”.

`Cc1ccccc1N1CCN(CCc2nnc3n2CCCC3)CC1` [DAPIPRAZOLE]: the IC50 entry was “Not Active”.

The target of the next test is Tyrosine-protein kinase Fyn (Homo sapiens, UniProt P06241). The test can be described thus: biochemical. To be noted: insect cells. Type of test: cell-based, Insect cells.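 Note: enzymatic inhibition of Fyn kinase activity measured with Poly(Glu:Tyr) as the phosphorylation substrate; in other assays of this panel Not Active means under 50% inhibition at 10 µM.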
Chain of Tyrosine-protein kinase Fyn (P06241 whole entry): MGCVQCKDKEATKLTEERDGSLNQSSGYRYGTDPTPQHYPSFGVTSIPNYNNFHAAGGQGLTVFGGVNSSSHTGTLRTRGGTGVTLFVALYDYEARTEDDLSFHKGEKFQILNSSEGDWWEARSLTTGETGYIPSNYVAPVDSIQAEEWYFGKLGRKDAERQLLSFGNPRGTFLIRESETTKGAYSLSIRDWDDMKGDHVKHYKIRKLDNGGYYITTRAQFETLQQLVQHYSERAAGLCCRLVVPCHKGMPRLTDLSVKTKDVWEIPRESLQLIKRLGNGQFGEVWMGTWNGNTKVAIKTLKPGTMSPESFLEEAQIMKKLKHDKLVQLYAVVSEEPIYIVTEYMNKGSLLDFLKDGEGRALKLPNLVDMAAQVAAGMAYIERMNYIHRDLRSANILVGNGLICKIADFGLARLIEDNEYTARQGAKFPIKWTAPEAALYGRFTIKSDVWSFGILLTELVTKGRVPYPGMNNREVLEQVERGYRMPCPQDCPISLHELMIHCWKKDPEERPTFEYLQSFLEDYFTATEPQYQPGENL
With `CCCCOC(=O)c1ccc(N)cc1` [BUTAMBEN], the IC50 entry is on record as “Not Active”.

In the case of `Cc1ccccc1N1CCN(CCc2nnc3n2CCCC3)CC1` [DAPIPRAZOLE], the IC50 result is given as “Not Active”.

The target in the next test is T3, Cysteinyl leukotriene receptor 1 (Homo sapiens, UniProt Q9Y271). Note: in other assays of this panel Not Active means under 50% inhibition at 10 µM.
T3 sequence (Q9Y271 whole entry): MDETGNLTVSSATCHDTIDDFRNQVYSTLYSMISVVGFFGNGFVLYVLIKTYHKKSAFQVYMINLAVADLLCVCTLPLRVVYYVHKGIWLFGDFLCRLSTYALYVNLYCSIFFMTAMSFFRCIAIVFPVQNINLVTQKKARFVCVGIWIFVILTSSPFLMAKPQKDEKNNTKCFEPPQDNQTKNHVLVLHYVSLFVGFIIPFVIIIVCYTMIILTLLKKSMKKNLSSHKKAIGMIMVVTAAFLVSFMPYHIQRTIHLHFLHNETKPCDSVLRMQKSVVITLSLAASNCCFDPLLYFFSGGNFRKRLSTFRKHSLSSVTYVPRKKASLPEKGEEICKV
Experiment: not given
The conditions noted are these: cho-k1. Type of test: cell membranes, CHO-K1, Membrane.
Turning to `CCCCOC(=O)c1ccc(N)cc1` [BUTAMBEN], the IC50 result was “Not Active”.

As to `Cc1ccccc1N1CCN(CCc2nnc3n2CCCC3)CC1` [DAPIPRAZOLE], the IC50 entry was “Not Active”.

Test system in another test: not listed separately
Nature of the test: DRUGMATRIX: Leukotriene, BLT (LTB4) radioligand binding (ligand: [3H]LTB4). Type of test: cell membranes, Membrane. The conditions noted are these: u-937; Not Active = under 50% inhibition at 10 µM.
Regarding `CCCCOC(=O)c1ccc(N)cc1` [BUTAMBEN], the IC50 entry is recorded as “Not Active” and the Ki result was “Not Active”.

For `Cc1ccccc1N1CCN(CCc2nnc3n2CCCC3)CC1` [DAPIPRAZOLE], the IC50 entry is given as “Not Active” and the Ki entry is “Not Active”.

A further test has as its target T4, Cathepsin G (Homo sapiens, UniProt P08311).
T4 sequence (P08311 whole entry): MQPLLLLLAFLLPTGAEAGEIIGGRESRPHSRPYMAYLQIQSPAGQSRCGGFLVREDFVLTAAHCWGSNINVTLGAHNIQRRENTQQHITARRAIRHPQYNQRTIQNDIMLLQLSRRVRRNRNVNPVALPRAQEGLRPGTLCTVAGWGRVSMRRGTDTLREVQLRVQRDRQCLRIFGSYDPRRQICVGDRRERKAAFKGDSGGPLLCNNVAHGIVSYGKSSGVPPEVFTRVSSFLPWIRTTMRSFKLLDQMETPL
Experiment: not given
It counts as tissue-based. The conditions noted are these: neutrophil.
In the case of `CCCCOC(=O)c1ccc(N)cc1` [BUTAMBEN], the IC50 entry is recorded as “Not Active”.

As for `Cc1ccccc1N1CCN(CCc2nnc3n2CCCC3)CC1` [DAPIPRAZOLE], the IC50 entry was “Not Active”.

Test system in the next test: not listed separately
The test can be described thus: DRUGMATRIX: Sigma2 radioligand binding (ligand: [3H] Ifenprodil). Type of test: cell membranes, Rattus norvegicus, Wistar, Brain, Membrane. To be noted: Not Active = under 50% inhibition at 10 µM.
`CCCCOC(=O)c1ccc(N)cc1` [BUTAMBEN]: the half-inhibitory concentration (IC50) entry is listed as “Not Active” and the Ki result is reported as “Not Active”.

`Cc1ccccc1N1CCN(CCc2nnc3n2CCCC3)CC1` [DAPIPRAZOLE]: the half-inhibitory concentration (IC50) entry is reported as “Not Active” and the Ki result is on record as “Not Active”.

The next test has as its target Melanocortin receptor 5 (Homo sapiens, UniProt P33032). Note: in other assays of this panel Not Active means under 50% inhibition at 10 µM.
Experiment: not given
To be noted: hek293. Type of test: cell membranes, HEK293, Membrane.
On to `CCCCOC(=O)c1ccc(N)cc1` [BUTAMBEN], for which the IC50 entry was “Not Active”.

Consider `Cc1ccccc1N1CCN(CCc2nnc3n2CCCC3)CC1` [DAPIPRAZOLE], for which the half-inhibitory concentration (IC50) result is “Not Active”.

The target in the next test is T5, 5-hydroxytryptamine receptor 2C (Homo sapiens, UniProt P28335).
T5 sequence (P28335 whole entry): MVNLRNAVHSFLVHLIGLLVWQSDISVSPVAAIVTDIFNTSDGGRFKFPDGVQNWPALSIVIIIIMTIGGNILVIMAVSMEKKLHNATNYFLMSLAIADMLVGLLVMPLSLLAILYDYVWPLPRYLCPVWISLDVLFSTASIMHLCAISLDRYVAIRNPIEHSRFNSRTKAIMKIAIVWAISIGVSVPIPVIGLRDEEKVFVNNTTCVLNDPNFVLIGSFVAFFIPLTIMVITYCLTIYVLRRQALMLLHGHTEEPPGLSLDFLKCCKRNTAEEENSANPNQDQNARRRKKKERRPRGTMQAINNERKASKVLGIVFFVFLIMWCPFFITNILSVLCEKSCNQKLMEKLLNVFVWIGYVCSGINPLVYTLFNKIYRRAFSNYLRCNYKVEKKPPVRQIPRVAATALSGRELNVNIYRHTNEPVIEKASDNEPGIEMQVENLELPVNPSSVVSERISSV
The test can be described thus: DRUGMATRIX: Serotonin (5-Hydroxytryptamine) 5-HT2C radioligand binding (ligand: [3H] Mesulergine). Type of test: cell membranes, CHO-K1, Membrane. The conditions noted are these: Not Active = under 50% inhibition at 10 µM; read-out: IC50.
In the case of `Cc1ccccc1N1CCN(CCc2nnc3n2CCCC3)CC1` [DAPIPRAZOLE], the IC50 is 625 nM.

Still in this test, the particulars now being: Not Active = under 50% inhibition at 10 µM; read-out: Ki.
For the molecule `Cc1ccccc1N1CCN(CCc2nnc3n2CCCC3)CC1` [DAPIPRAZOLE], the Ki came out at 327 nM.

Still in this test, the particulars now being: cho-k1; Not Active = under 50% inhibition at 10 µM.
Turning to `CCCCOC(=O)c1ccc(N)cc1` [BUTAMBEN], the IC50 entry is recorded as “Not Active”.

(Values after ChEMBL document CHEMBL1909046, “DrugMatrix in vitro pharmacology data”.)
